Source: patent US8981094B2, “Piperidine/piperazine derivatives” (Janssen Pharmaceutica N.V., priority 2007, dated 2015)

The compounds below were run against T1, human DGAT1 (Homo sapiens, UniProt O75907) (assay: Inhibition of DGAT1 activity, FlashPlate assay with DGAT1 membrane preparations and substrate micelles). Settings: pIC50 = -logIC50, IC50 values expressed in M.
T1 construct: FLAG (N); made in house; host or cells: SF9 insect cells (pFastBac baculovirus); total cell membranes
T1 sequence (O75907 1-488): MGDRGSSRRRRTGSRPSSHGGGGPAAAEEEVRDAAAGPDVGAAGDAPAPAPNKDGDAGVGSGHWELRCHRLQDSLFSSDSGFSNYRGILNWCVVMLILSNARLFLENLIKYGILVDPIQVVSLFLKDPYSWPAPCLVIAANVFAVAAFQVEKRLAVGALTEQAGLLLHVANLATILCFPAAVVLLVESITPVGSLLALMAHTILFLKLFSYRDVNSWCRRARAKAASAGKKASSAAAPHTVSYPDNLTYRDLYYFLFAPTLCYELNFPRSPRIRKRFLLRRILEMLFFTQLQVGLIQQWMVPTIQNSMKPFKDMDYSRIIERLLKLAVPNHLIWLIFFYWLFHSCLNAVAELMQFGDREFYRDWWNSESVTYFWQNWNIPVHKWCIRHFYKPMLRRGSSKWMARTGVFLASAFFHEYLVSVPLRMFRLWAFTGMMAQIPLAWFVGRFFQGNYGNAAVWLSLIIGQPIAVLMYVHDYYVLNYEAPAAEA
Format: biochemical
Source text: A) Measurement of Inhibition of DGAT1 Activity by the Present Compounds
The inhibiting activity of the present compounds on DGAT1 activity was screened in a single well procedure assay using DGAT1 comprising membrane preparations and DGAT1 substrate comprising micelles and determining formed radio-active triacylglycerol coming in close proximity of a flashplate surface by radio luminescence.
Said assay is described in full detail in WO2006/067071, the content of which is incorporated herein by reference.
By DGAT1 activity is meant the transfer of coenzyme A activated fatty acids to the 3-position of 1,2-diacylglycerols, thus forming a triglyceride molecule, by enzyme DGAT1.
human DGAT1 (NM012079.2) was cloned into the pFastBac vector, containing translation start, a FLAG-tag at the N-terminus as described in literature and a viral Kozak sequence (AAX) preceding the ATG to improve expression in insect cells. Expression was done as described in literature (Cases, S., Smith, S. J., Zheng, Y., Myers H. M., Lear, S. R., Sande, E., Novak, S., Collins, C., Welch, C. B., Lusis, A. J., Erickson, S. K. and Farese, R. V. (1998) Proc. Natl. Acad. Sci. USA 95, 13018-13023.) using SF9 cells.
72 h transfected SF9 cells were collected by centrifugation (13000 rpm-15 min-4° C.) and lysed in 2×500 ml lysisbuffer (0.1M Sucrose, 50 mM KCl, 40 mM KH2PO4, 30 mM EDTA pH 7.2. Cells were homogenized by cell disruptor. After centrifugation 1380 rpm-15 min-4° C. (SN discarded), pellet was resuspended in 500 ml lysisbuffer and total cell membranes collected by ultracentrifugation at 34000 rpm(100 000 g) for 60 min (4° C.). The collected membranes were resuspended in lysis buffer, divided in aliquots and stored with 10% glycerol at −80° C. until use.
Add 1 ml dioleoyl-sn-glycerol (10 mg/ml) to 10 ml of L-α-phosphatidylcholine (1 mg/ml) and 10 ml of L-α-phosphatidyl-L-serine (1 mg/ml) in a thick glass recipient. Evaporate under nitrogen and put on ice for 15 minutes. Reconstitute in 10 ml Tris/HCl (10 mM, pH 7.4) by sonication on ice. The sonification process consists of sonification cycles of 10 seconds in the sonification bath followed by 10 seconds cool down on ice and repeating this sonification cycle till a homogeneous solution is obtained (takes about 15 minutes). The thus obtained micelles are stored at −20° C. till later use and contain DAG at a final concentration of 1.61 mM.
c) Substrate mix (for 1 384 well plate=3840 μl) • 612 μl micelles stock (51 μM final) • 16.6 μl oleoylCoA 9.7 mM • 23 μl [^3H]-oleoylCoA (49 Ci/mmol, 500 μCi/ml) • 3188.4 μl Tris pH 7.4, 10 mM
d) Enzyme mix (for 1 384 well plate=3520 μl) (5 μg/ml) • Add 11.73 μl of DGAT membrane stock (1500 μg/ml stock) to 3508 μl assay buffer.
e) Stop mix (for 1 384 well plate=7.68 ml) (250 mM) • Add 384 μl of N-ethylmaleimide (5M) to 3.456 ml DMSO 100%, and further dilute 3.84 ml of said solution with 3.84 ml DMSO 10%.
DGAT activity in membrane preparations was assayed in 50 mM Tris-HCl (pH 7.4), 150 mM MgCl2, 1 mM EDTA and 0.2% BSA, containing 50 μM DAG, 32 μg/ml PC/PS and 8.4 μM [^3H]-oleoylCoA (at a specific activity of 30 nCi/well) in a final volume of 50 μl in 384-well format using the red shifted Basic Image FlashPlate™ (Perkin Elmer Cat.No. SMP400).
In detail, 10 μl enzyme mix and 10 μl substrate mix were added to 30 μl of assay buffer, optionally in the presence of 1 μl DMSO (blank and controls) or 1 μl of the compound to be tested. This reaction mixture was incubated for 120 minutes at 37° C. and the enzymatic reaction stopped by adding 20 μl of the stop mix. The plates were sealed and the vesicles allowed to settle overnight at room temperature. Plates were centrifuged for 5 minutes at 1500 rpm and measured in Leadseeker. […]

Question: `COc1ccc(CC(=O)Nc2ccc(N3CCN(C(=O)C4(c5c(Cl)cccc5Cl)CC4)CC3)cc2)cc1` [Compound 342] was tested. Which IC50 did it give?
Answer: 3980 nM

Question: For `CCOC(=O)c1ccc(N2CCCN(CC(=O)Nc3ccc(C4CCN(C(=O)Nc5c(Cl)cccc5Cl)CC4)cc3)CC2)cc1` [Compound 101], which IC50 is on record?
Answer: 138 nM

Question: `CC(C)(C)OC(=O)N1CCCC1CC(=O)Nc1ccc(C2CCN(C(=O)Nc3c(Cl)cccc3Cl)CC2)cc1` (stereo not shown) [Compound 39] was tested. Which IC50 did it give?
Answer: 17 nM

Question: `O=C(CCCc1ccccc1)Nc1ccc(N2CCN(C(=O)C(O)c3ccc(F)cc3)CC2)cc1` (stereo not shown) [Compound 344] was tested. Which IC50 did it give?
Answer: 4070 nM

Question: For `CN(C)C(=O)c1cc(Cl)c(NC(=O)N2CCN(c3ccc(NC(=O)CCCc4ccccc4)cc3)CC2)c(Cl)c1` [Compound 284], which IC50 is on record?
Answer: 8.13 nM

Question: With `CC1(C)CCN(CC(=O)Nc2ccc(C3CCN(C(=O)Nc4c(Cl)cccc4Cl)CC3)cc2)CC1` [Compound 108] as the compound, how does the IC50 read?
Answer: 251 nM

Question: How did the IC50 turn out when `O=C(CCc1ccco1)Nc1ccc(C2CCN(C(=O)Nc3c(Cl)cccc3Cl)CC2)cc1` [Compound 133] was run?
Answer: 38 nM

Question: `O=C(CCCc1ccccc1)Nc1ccc(N2CCN(C(=O)Nc3ccccc3[N+](=O)[O-])CC2)cc1` [Compound 80] was tested. Which IC50 did it give?
Answer: 589 nM

Question: For `CC(CN)C(=O)Nc1ccc(C2CCN(C(=O)Nc3c(Cl)cccc3Cl)CC2)cc1` (stereo not shown) [Compound 23], which IC50 is on record?
Answer: 2570 nM

Question: `O=C(NCc1cccc(N2CCCC2)c1)c1ccc(N2CCN(C(=O)Cc3c(Cl)cc(CN4CCCC4)cc3Cl)CC2)cc1` [Compound 267] was tested. Which IC50 did it give?
Answer: 107 nM

Question: With `C=CCNCC(=O)Nc1ccc(C2CCN(C(=O)Nc3c(Cl)cccc3Cl)CC2)cc1` [Compound 20] as the compound, how does the IC50 read?
Answer: 575 nM

Question: How did the IC50 turn out when `O=C(Cn1ccnc1)Nc1ccc(C2CCN(C(=O)Nc3c(Cl)cccc3Cl)CC2)cc1` [Compound 123] was run?
Answer: 871 nM

Question: How did the IC50 turn out when `O=C(CCCc1ccccc1)Nc1ccc(N2CCN(C(=O)C(O)c3ccc(F)cc3Cl)CC2)cc1` (stereo not shown) [Compound 309] was run?
Answer: 35.5 nM

Question: How did the IC50 turn out when `O=C(CCN1CCOCC1)Nc1ccc(N2CCN(C(=O)Nc3c(Cl)cccc3Cl)CC2)cc1` [Compound 136] was run?
Answer: 389 nM

Question: For `CCCCCCC(=O)Nc1ccc(N2CCN(C(=O)N(C)c3c(Cl)cccc3Cl)CC2)cc1` [Compound 10], which IC50 is on record?
Answer: 1100 nM

Question: How did the IC50 turn out when `O=C(CCCc1ccccc1)Nc1ccc(N2CCN(C(=O)Nc3c(Cl)cc(CN4CCOCC4)cc3Cl)CC2)cc1` [Compound 269] was run?
Answer: 2.04 nM

Question: With `CN(C)CCNC(=O)c1cc(Cl)c(NC(=O)N2CCN(c3ccc(NC(=O)CCCc4ccccc4)cc3)CC2)c(Cl)c1` [Compound 321] as the compound, how does the IC50 read?
Answer: 91.2 nM

Question: With `CCC(C(=O)Nc1ccc(N2CCN(C(=O)Cc3ccccc3C)CC2)cc1)c1ccccc1` (stereo not shown) [Compound 336] as the compound, how does the IC50 read?
Answer: 692 nM

Question: `O=C(NCc1ccc2c(c1)OCO2)c1ccc(N2CCN(C(=O)Cc3c(Cl)cccc3Cl)CC2)cc1` [Compound 235] was tested. Which IC50 did it give?
Answer: 53.7 nM

Question: With `CCCCCCCNCC(=O)Nc1ccc(C2CCN(C(=O)Nc3c(Cl)cccc3Cl)CC2)cc1` [Compound 115] as the compound, how does the IC50 read?
Answer: 204 nM

Question: With `O=C(CNCc1ccccc1)Nc1ccc(C2CCN(C(=O)Nc3c(Cl)cccc3Cl)CC2)cc1` [Compound 117] as the compound, how does the IC50 read?
Answer: 214 nM

Question: `CCCCCCCN(C)CC(=O)Nc1ccc(C2CCN(C(=O)Nc3c(Cl)cccc3Cl)CC2)cc1` [Compound 99] was tested. Which IC50 did it give?
Answer: 25.7 nM

Question: With `CCC(=O)N(C)CC(=O)Nc1ccc(N2CCN(C(=O)Nc3c(Cl)cccc3Cl)CC2)cc1` [Compound 170] as the compound, how does the IC50 read?
Answer: 245 nM

Question: For `CC(C(=O)N1CCN(c2ccc(NC(=O)CCCc3ccccc3)cc2)CC1)c1ccc(O)cc1` (stereo not shown) [Compound 347], which IC50 is on record?
Answer: 5010 nM

Question: With `N#CCCNCC(=O)Nc1ccc(C2CCN(C(=O)Nc3c(Cl)cccc3Cl)CC2)cc1` [Compound 121] as the compound, how does the IC50 read?
Answer: 3800 nM

Question: For `CCCC(=O)N(C)CC(=O)Nc1ccc(N2CCN(C(=O)Nc3c(Cl)cccc3Cl)CC2)cc1` [Compound 169], which IC50 is on record?
Answer: 53.7 nM

Question: Which IC50 does the source give for `O=C(CCCc1ccccc1)Nc1ccc(N2CCN(C(=O)Nc3c(Cl)cc(C(=O)O)cc3Cl)CC2)cc1` [Compound 27] here?
Answer: 33.9 nM

Question: How did the IC50 turn out when `O=C(CCCc1ccccc1)Nc1ccc(N2CCN(C(=O)C(O)c3cccc(F)c3F)CC2)cc1` (stereo not shown) [Compound 327] was run?
Answer: 129 nM

Question: How did the IC50 turn out when `O=C(CCCc1ccccc1)Nc1ccc(N2CCN(C(=O)Nc3c(Cl)cc(C(=O)NCCN4CCOCC4)cc3Cl)CC2)cc1` [Compound 310] was run?
Answer: 37.2 nM

Question: For `COC(=O)CCCC(=O)Nc1ccc(C2CCN(C(=O)Nc3c(Cl)cccc3Cl)CC2)cc1` [Compound 126], which IC50 is on record?
Answer: 67.6 nM

Question: For `COCCN(C)CC(=O)Nc1ccc(C2CCN(C(=O)Nc3c(Cl)cccc3Cl)CC2)cc1` [Compound 110], which IC50 is on record?
Answer: 1410 nM

Question: Which IC50 does the source give for `CC(=O)c1cc(Cl)c(NC(=O)N2CCN(c3ccc(NC(=O)CCCc4ccccc4)cc3)CC2)c(Cl)c1` [Compound 53] here?
Answer: 46.8 nM

Question: Which IC50 does the source give for `O=C(CCCc1ccccc1)Nc1ccc(N2CCN(C(=O)Nc3c(Cl)cc(OC(F)(F)F)cc3Cl)CC2)cc1` [Compound 13] here?
Answer: 29.5 nM

Question: With `O=C(CCCc1ccccc1)Nc1ccc(N2CCN(C(=O)C(O)c3ccc(Br)cc3)CC2)cc1` (stereo not shown) [Compound 349] as the compound, how does the IC50 read?
Answer: 6030 nM

Question: For `O=C(NCC12CC3CC(CC(C3)C1)C2)c1ccc(N2CCN(C(=O)Nc3c(Cl)cc(CN4CCCC4)cc3Cl)CC2)cc1` [Compound 243], which IC50 is on record?
Answer: 129 nM

Question: `O=C(CC(=O)OCc1ccccc1)Nc1ccc(N2CCN(C(=O)Nc3c(Cl)cccc3Cl)CC2)cc1` [Compound 277] was tested. Which IC50 did it give?
Answer: 4.57 nM

Question: With `O=C(CCCc1ccccc1)Nc1ccc(N2CCN(C(=O)Cc3c(Cl)cccc3Cl)CC2)cc1` [Compound 52] as the compound, how does the IC50 read?
Answer: 35.5 nM

Question: With `CN(C)C(=O)CCC(=O)Nc1ccc(N2CCN(C(=O)Nc3c(Cl)cccc3Cl)CC2)cc1` [Compound 137] as the compound, how does the IC50 read?
Answer: 3390 nM

Question: With `COc1ccc(CC(=O)Nc2ccc(N3CCN(C(=O)Nc4c(Cl)cccc4Cl)CC3)cc2)cc1` [Compound 144] as the compound, how does the IC50 read?
Answer: 5.75 nM

Question: How did the IC50 turn out when `COc1ccc(NC(=O)N2CCN(c3ccc(NC(=O)CCCc4ccccc4)cc3)CC2)c(OC)c1` [Compound 75] was run?
Answer: 603 nM

Question: With `C=CCC(NC(=O)OC(C)(C)C)C(=O)Nc1ccc(C2CCN(C(=O)Nc3c(Cl)cccc3Cl)CC2)cc1` (stereo not shown) [Compound 207] as the compound, how does the IC50 read?
Answer: 209 nM

Question: Which IC50 does the source give for `O=C(Cc1ccsc1)Nc1ccc(N2CCN(C(=O)Nc3c(Cl)cccc3Cl)CC2)cc1` [Compound 142] here?
Answer: 13.8 nM

Question: How did the IC50 turn out when `CC(C)(C)OC(=O)NC(CC#N)C(=O)Nc1ccc(C2CCN(C(=O)Nc3c(Cl)cccc3Cl)CC2)cc1` (stereo not shown) [Compound 211] was run?
Answer: 126 nM

Question: Which IC50 does the source give for `O=C(CCc1ccco1)Nc1ccc(N2CCN(C(=O)Nc3c(Cl)cccc3Cl)CC2)cc1` [Compound 143] here?
Answer: 18.2 nM

Question: `CC(C)(C)OC(=O)NC1(C(=O)Nc2ccc(C3CCN(C(=O)Nc4c(Cl)cccc4Cl)CC3)cc2)CCCC1` [Compound 216] was tested. Which IC50 did it give?
Answer: 34.7 nM

Question: For `O=C(CNCc1ccco1)Nc1ccc(C2CCN(C(=O)Nc3c(Cl)cccc3Cl)CC2)cc1` [Compound 119], which IC50 is on record?
Answer: 389 nM
